From patent publication US20200291350A1, “HEPATOCYTE CONSTRUCT AND METHOD FOR PRODUCING THE SAME” (NIHON KOHDEN CORPORATION, priority 2019, published 2020)

Experiments:
Assay type in all cases: cell-based
PHH/NHDF cell sheet = assay: Effect of added agent on ballooning of human hepatocytes in PHH/NHDF hepatocyte construct (H&E staining); conditions: metformin 500 μM added on day 1; PHH/NHDF cell sheet on day 11 or day 4
Experimental: (§1) At pre-determined time points, cell sheet samples were washed by pre-warmed PBS twice and fixed in 4% paraformaldehyde at room temperature for 1 h. Fixed cell sheets were embedded in paraffin, sliced into 4 μm sections and deparaffinized for standard histological staining with hematoxylin and eosin (HE). For immunostainings of cytokeratin 8+18 (CK8/18), sections were treated with Dako proteinase K (Agilent, Santa Clara, Calif., US) for antigen retrieval, incubated in Dako REAL peroxidase-blocking solution (Agilent) to quench endogenous peroxidase activity, and then blocked in Blocking One Histo (Nacalai Tesque, Kyoto, Japan). After that, the sections were incubated with mouse anti-human CK8/18 at 25-fold dilution (Abeam, Cambridge, UK) followed by incubation with horseradish […] donkey anti-mouse IgG H&L (Abeam). The sections were dyed with Dako Liquid DAB+Substrate Chromogen System (Agilent) and the nuclei were stained with hematoxylin. Finally, the sections were mounted, dried and imaged with a light microscope (Nikon).
As PHHs and NHDFs, PHHs and NHDFs used in Example 1 were used.
Primary human hepatocytes (PHH)/NHDF co-culture and production of a hepatocyte construct were performed in the same manner as in Example 1 described above. […]

[1] = system: mouse hepatocyte/NHDF cell sheet; assay: Effect of added agent on ballooning of mouse hepatocytes in PMH/NHDF hepatocyte construct (H&E staining); conditions: metformin 500 μM added on day 1; mouse hepatocyte/NHDF cell sheet day 8
Experimental: as §1
Primary mouse hepatocytes (PMH) were obtained in the same manner as in Example 3.
As NHDFs, NHDFs used in Example 1 were used.
Primary mouse hepatocytes (PMH)/NHDF co-culture and production of a hepatocyte construct were performed in the same manner as in Example 1 except that PMHs were used in place of the above-mentioned PHHs. […]

[2] = system: mouse hepatocyte/NHDF cell sheet; assay: Hepatocellular ballooning in mouse hepatocyte/NHDF cell sheet made with mitomycin C-treated NHDFs (H&E staining); conditions: NHDFs treated with mitomycin C 6 μg/mL for 2.5 hours before co-culture with PMHs; cell sheet day 8; vs untreated NHDFs
Experimental: as §1
Primary mouse hepatocytes (PMH) were isolated from the liver of a mouse by a modified two-step collagenase perfusion method and purified by a 45% percoll density gradient centrifugation method. The viability of PMHs was 90%.
As NHDFs, NHDFs used in Example 1 were used. […]

| Compound | hepatocellular ballooning (PHH/NHDF cell sheet) | hepatocellular ballooning [1] | hepatocellular ballooning [2] |
| --- | --- | --- | --- |
| CN(C)C(=N)N=C(N)N [metformin] | suppressed | suppressed | – |
| CO[C@@]12[C@H](COC(N)=O)C3=C(C(=O)C(C)=C(N)C3=O)N1C[C@@H]1N[C@@H]12 [mitomycin C] | – | – | suppressed |
